In patent publication US7629317B2, “Control of growth and repair of gastro-intestinal tissues by gastrokines and inhibitors” (The University of Chicago, priority 2001, dated 2009):
“Also recorded” adds a separate entry of the source.

How the values were obtained:
Helicobacter pylori = test: Growth inhibition on a bacterial lawn (filter diffusion); format: cell-based; conditions: solution on filter
Description: To determine if AMP peptide inhibits growth of H. pylori, a lawn of bacteria was prepared on a culture dish. A small circular filter was placed in the center of the dish, a solution of a test agent was placed on the filter so it diffused onto the lawn, and its effect on bacterial growth around the filter was measured. AMP peptide 77-97 (SEQ ID NO: 12) (Table 1), a scrambled version of this AMP peptide (negative control) (SEQ ID NO: 19), or the antibiotic clarithromycin (positive control) was added to a filter on different cultures. […] In addition, AMP peptide could serve as a therapeutic agent to treat H. pylori infections in the stomach, and thereby prevent the capacity of this organism to cause gastritis, gastric ulcers, and gastric adenocarcinomas.

[1] = tested on: BSC-1 epithelial cell line; test: Growth (mitogenesis) assay on confluent BSC-1 cells, cells counted 4 days later; format: cell-based, monkey; conditions: for K1/2; concentration for half-maximal growth stimulation / EC50: synthetic peptides of Table 1; for EC50: read-out: K1/2, concentration for half-maximal growth stimulation; for antagonism of the activity of peptide 78-119: inactive overlapping peptide with the mitogenic 42-mer; for antagonism of the activity of peptide 104-117: inactive peptide with the mitogenic 14-mer; for mitogenic activity (in words): compared with related peptides
Excerpt: Finding that a 42-amino acid peptide representing a central region of the novel antrum mucosal cell protein AMP-18 had mitogenic activity similar in character to that of the intact protein in pig and mouse antrum extracts (Table 1), has facilitated the characterization of the bio-active region of the molecule. […] Growth activity determinations have so far been accomplished with the kidney epithelial cell line as well as several gastric and intestinal lines.
Non-transformed monkey kidney epithelial cell line BSC-1 and other epithelial cell lines were used to assess effects on growth. In general, conditions were chosen for each line such that cells are grown to confluence in plastic dishes in supplemented growth medium with minimal calf (or fetal) serum for growth (Lieske et al., 1997); BSC-1 cells become confluent at 10^6/60 mm dish with 1% calf serum. At the start of the growth assay the medium on the confluent culture was aspirated and replaced with fresh medium with minimal serum to maintain viability (0.01% for BSC-1) cells. AMP-18 preparations were added to the culture medium and 4 days later the cell monolayer was rinsed, detached with trypsin, and the cells were counted using a hemocytometer. Determination of the capacity of AMP-18 to initiate DNA synthesis was measured by the incorporation of [^3H]thymidine (Toback, 1980); to confirm the DNA synthesis assay, autoradiograms of leveled cells were counted (Kartha and Toback, 1985).

AGS cells = test: Growth of gastric epithelial AGS cells (cell count four days later); format: cell-based, human; conditions: for growth stimulation of AGS cells (in words): peptide 77-97 8 μg/ml, EGF 50 ng/ml at saturating doses
Description: (§1) To characterize the capacity of gastric and intestinal cells to respond to AMP-18, AGS gastric adenocarcinoma cells, HAE human gastric antrum mucosa primary cultures transformed with SV40 large T antigen, rat diploid small intestinal epithelial cells of the IEC-6 (FIG. 15) and IEC-18 lines, NCI N-87 gastric carcinoma cells, and SK-GT5 gastroesophageal adenocarcinoma cells were studied; human WI-38 fibroblasts and HeLa cells served as non-GI control cell lines. Mitogenesis was assayed by performing cell counts 3 to 4 days after exposing cells to the agent of interest, trypsinizing the culture to prepare single cells, and confirming this while counting them in a hemocytometer.

IEC-18 cells = test: Growth of confluent cultures of IEC-18 cells (cell count); format: cell-based, rat
Description: Confluent cultures of IEC-18 cells were prepared. One day later, medium was aspirated and replaced with 5 ml of DMEM containing CS (0.5%) and insulin, without (control) or with mitogenic peptide 58-99 (8 μg/ml). Sister plates receiving 1 ml medium and different amounts of peptide 67-85 were incubated at 1 hr at 38° C. on a CO2 incubator, and then an additional 4 ml of medium was added to each dish. Peptide 58-99 was added to 2 of the 4-sister plates at each concentration of peptide 67-85, and the number of cells was counted. […] Stimulation of cell growth by mitogenic peptide 58-99 was completely abolished by preincubation of cells with 0.25 μg/ml of peptide 67-85. […] Values for the number of cells per culture are shown relative to multiplication of cells exposed to the vehicle during the same period.
Urea (6 M) was employed to release proteins from the insoluble fraction solubilize rhAMP-18 containing the His6-tag (SEQ ID NO: 16), and make it available to bind to the Ni^2+-charged resin from which it was subsequently eluted with a gradient of imidazole (0 to 200 mM). The amount of eluted rhAMP-18 was measured using the BCA assay, and the appearance of a single band at the predicted size of 19-20 kD was confirmed by SDS-PAGE followed by immunoblotting. To determine if eluted rhAMP-18 renatured to assume a structure that was mitogenic, aliquots of the eluate (following removal of urea and imidazole by dialysis) were added to cultures of IEC-18 cells and the number of cells was counted 4 days later. […] AMP peptide 77-97 refers to the mature protein; same as peptide 97-117 of human precursor protein: Table 1. These observations indicate that biologically active recombinant human AMP-18 that can be utilized in diverse clinical situations is available. The mitogenic potency of rhAMP-18 is in the nanomolar range which would be expected for a native gastric cell growth factor that participates in the maintenance and repair of the stomach in vivo.
as §1

[2] = tested on: occludin, ZO-1, ZO-2, claudin-5, E-cadherin, JAM; test: Accumulation of tight and adherens junction proteins in C2 cells (immunoblot of insoluble fraction, confocal microscopy); format: cell-based, human; conditions: 8 hr; peptides 8 μg/ml, EGF 50 ng/ml
Description: To find out how the peptide exerts its cytoprotective effect, C2 cell monolayers were treated with AMP peptide, and oxidant injury was induced with monochloramine 18 hours later. Changes in the levels of specific tight junction (TJ) proteins were checked. Cells were lysed, and proteins of the insoluble/particulate fraction were studied by immunoblotting. […] This observation represents the first evidence that AMP peptide enhances accumulation of specific TJ proteins in colonic epithelial cells. […] To carry out this experiment, C2 cells were exposed to AMP peptide for different periods of time, the NP-40-insoluble fraction was obtained, Western blots were prepared, and the amount of each immunoreactive protein was quantified. A 65% increase in immunoreactivity of each protein compared to control was detected for occludin after 2 hr, and for ZO-1 at 8 hr. Hsc73, which is constitutively expressed in these cells, was not altered by exposure to AMP peptide for up to 18 hr.
Confluent monolayers of C2 cells were treated with AMP peptide or vehicle for 8 hr. Cells were then collected, proteins in the NP-40-insoluble fraction were separated by SDS-PAGE, immunoblots were prepared, and the relative amounts of immunoreactive proteins were compared by densitometric analysis. […] These changes appear relatively specific for occludin, ZO-1, ZO-2, claudin-5, E-cadherin, and JAM because they were not observed for several other proteins localized in the TJ (claudin-1, claudin-2), adherens junction (β-catenin), plasma membrane (Na-K-2Cl cotransporter, α or β subunit of Na-K-ATPase), or cytosol (Rho A, hsc73).
To better understand the mechanism(s) by which AMP peptide enhances accumulation of TJ-associated proteins, experiments were performed to determine whether the peptide exerted its effect at the apical or basolateral surface of C2 cells. Monolayers of C2 cells were grown on Transwell filters, AMP peptide (8:g/ml) was added to the apical or basolateral compartment of the Transwell, and cells were harvested 8 hr later. The NP-40-insoluble fraction was obtained, its proteins separated, and immunoblots were prepared.

CC[C@H]1OC(=O)[C@H](C)[C@@H](O[C@H]2C[C@@](C)(OC)[C@@H](O)[C@H](C)O2)[C@H](C)[C@@H](O[C@@H]2O[C@H](C)C[C@H](N(C)C)[C@H]2O)[C@](C)(OC)C[C@@H](C)C(=O)[C@H](C)[C@@H](O)[C@]1(C)O [clarithromycin]
growth of H. pylori lawn (Helicobacter pylori): inhibited growth

GKPLGQPGKVPKLDGKEPLAK [97–117**, scrambled version of AMP peptide 77-97, negative control, reference compound]
growth stimulation of BSC-1 cells ([1]; concentrations up to 8 μg/ml): did NOT stimulate growth | growth of H. pylori lawn (Helicobacter pylori; listed as scrambled AMP peptide): not | growth of H. pylori lawn (Helicobacter pylori; listed as scrambled peptide): did not inhibit growth | growth stimulation of AGS cells (in words) (AGS cells): not stimulated | growth stimulation of IEC-18 cells (in words) (IEC-18 cells; added alone, peptides up to 8 μg/ml): did NOT stimulate growth | accumulation of occludin and ZO-1 (specificity) [2]: not replicated

GPGG [110–113]
K1/2; concentration for half-maximal growth stimulation [1]: Inactive

KGPGGPPPK [109–117]
EC50 [1]: 2500 nM

KKEVMPSIQSLDALVKEKK [87–105]
antagonism of the activity of the protein in stomach extracts [1]: block | antagonism of the activity of peptide 78-119 [1]: block; also recorded: antagonize | antagonism of the activity of peptide 104-117 ([1]; listed as peptide 87-105): blocks; also recorded: antagonizes | K1/2; concentration for half-maximal growth stimulation [1]: Inactive | inhibition of growth stimulation by peptide 58-99 (AGS cells): completely inhibits | growth stimulation of AGS cells (in words) (AGS cells): not stimulated | concentration nearly abolishing growth-stimulatory effect of peptide 58-99 (IEC-18 cells; FIG. 17): ~0.1 µg/mL | concentration completely abolishing growth stimulation by peptide 58-99 (IEC-18 cells; preincubation of cells, peptide 58-99 8 μg/ml): 0.25 µg/mL

KKLQGK [104–109]
EC50 [1]: 7400 nM

KKLQGKGPGGPPPK [104–117, 14 amino acid mitogenic domain]
activity relative to the 42-amino acid peptide ([1]; from the higher K1/2 value): 30-40% | EC50 [1]: 800 nM

KKLQGKGPGGPPPKGLMY [104–111]
mitogenic activity (in words) [1]: slightly less activity | EC50 [1]: 1000 nM

KKTCIVHKMKK [78–88]
antagonism of the activity of the protein in stomach extracts [1]: block | antagonism of the activity of peptide 78-119 [1]: block; also recorded: antagonize | antagonism of the activity of peptide 104-117 ([1]; listed as 68-88): NOT | antagonism of the activity of peptide 104-117 ([1]; listed as peptide 78-88): does not | K1/2; concentration for half-maximal growth stimulation [1]: Inactive

KKTCIVHKMKKEVMPSIQSLDALVKEKKLQGKGPGGPPPKGL [78–119, 42 amino acid peptide of human preAMP-18, peptide 58-99 of the mature protein]
mitogenic activity (in words) [1]: good mitogenic activity | EC50 [1]: 300 nM | increase in cell number (IEC-18 cells; 3 days, peptide 58-99 8 μg/ml, EGF 50 ng/ml, vehicle 290%): 407%

LDALVKEKKLQGKGPGGPPPKGLMY [97–121]
mitogenic activity (in words) [1]: more active | EC50 [1]: 200 nM

LDTMVKEQK . . . GKGPGGAPPKDLMY (LDTMVKEQKGKGPGGAPPKDLMY) [97–119]
EC50 [1]: 200 nM

B1: intact AMP protein: the intact, natural gastrokine AMP-18 protein of antrum mucosa (protein)
chain: YTVNINGNDGNVDGSGQQSVSINGVHNVANIDNNNGWDSWNSLWDYENSFAATRLFSKKSCIVHRMNKDAMPSLQDLDTMVKEQKGKGPGGAPPKDLMYSVNPTRVEDLNTFGPKIAGMCRGIPTYVAEEIPGPNQPLYSKKCYTADILWILRMSFCGTSVETY
estimate for the activity of the intact AMP protein ([1]; estimate): 1 to 10 nM
